These results are taken from ChEMBL document CHEMBL4359901, “Cyclic enaminone as new chemotype for selective cyclooxygenase-2 inhibitory, anti-inflammatory, and analgesic activities” (Eur J Med Chem, 2019).

Data set [1] is described as follows: Ulcerogenicity in Sprague-Dawley rat assessed as formation of ulcer at 20 mg/kg, po after 1 hr by microscopic analysis. Format: toxicity, organism-based. The note with it: in vivo.
Data set [2] relates to Rattus norvegicus. The data set can be described thus: Antiinflammatory activity in Sprague-Dawley rat model of carrageenan-induced thermal hyperalgesia assessed as paw withdrawal latency time at 50 mg/kg, po administered 1 hr prior to carrageenan challenge and measured after 4 hrs by planter test (reference value: 5.47 +/- 0.84 sec). It counts as functional.
In data set [3] the test system is Rattus norvegicus. The data set is described as follows: Antiinflammatory activity in Wistar albino rat assessed as reduction in carrageenan-induced paw volume at 12.5 mg/kg, ip measured after 1 hr by plethysmometric method (reference value: 1.43 +/- 0.19 ml). It counts as functional. For orientation: The carrageenan paw model is a standard test of acute inflammation.

The test system of data set [4] is Rattus norvegicus. The data set is described as follows: Antiinflammatory activity in Wistar albino rat assessed as reduction in carrageenan-induced paw edema at 25 mg/kg, ip measured after 2 hrs by plethysmometric method (reference value: 1.58 +/- 0.21 ml). Format: functional.
The subject of data set [5] is Rattus norvegicus. The data set can be described thus: Analgesic activity in Wistar albino rat assessed as reaction time at 12.5 mg/kg, ip measured after 120 mins for 15 secs by hot plate method (reference value: 4.32 +/- 0.52 sec). It counts as functional. In general terms: Hot-plate and tail-flick tests time the reaction to a heat stimulus.
In data set [6] the test system is Rattus norvegicus. The data set can be described thus: Antiinflammatory activity in Sprague-Dawley rat model of carrageenan-induced thermal hyperalgesia assessed as paw withdrawal latency pressure at 50 mg/kg, po administered 1 hr prior to carrageenan challenge and measured after 5 hrs by Von-frey test (reference value: 169.58 +/- 4.26 g). Format: functional.
For data set [7], the system named is Rattus norvegicus. The data set is described as follows: Analgesic activity in Wistar albino rat assessed as reaction time at 25 mg/kg, ip measured after 60 mins for 15 secs by hot plate method (reference value: 4.67 +/- 0.52 sec). Format: functional.
Data set [8] has as its system Rattus norvegicus. The data set can be described thus: Analgesic activity in Wistar albino rat assessed as reaction time at 12.5 mg/kg, ip measured after 180 mins for 15 secs by hot plate method (reference value: 3.87 +/- 0.38 sec). Format: functional.
Data set [9] concerns Rattus norvegicus. The data set is described as follows: Antiinflammatory activity in Sprague-Dawley rat model of carrageenan-induced thermal hyperalgesia assessed as paw withdrawal latency time at 50 mg/kg, po administered 1 hr prior to carrageenan challenge and measured after 3 hrs by planter test (reference value: 4.13 +/- 0.45 sec). Format: functional.
For data set [10], the system named is Rattus norvegicus. The data set is described as follows: Antiinflammatory activity in Wistar albino rat assessed as reduction in carrageenan-induced paw edema at 25 mg/kg, ip measured after 3 hrs by plethysmometric method (reference value: 1.75 +/- 0.33 ml). Format: functional.
The test system of data set [11] is Rattus norvegicus. The data set can be described thus: Antiinflammatory activity in Sprague-Dawley rat model of carrageenan-induced thermal hyperalgesia assessed as paw withdrawal latency pressure at 50 mg/kg, po administered 1 hr prior to carrageenan challenge and measured after 1 hr by Von-frey test (reference value: 159.88 +/- 4.66 g). Format: functional.
Data set [12] relates to Rattus norvegicus. The data set can be described thus: Analgesic activity in Wistar albino rat assessed as reaction time at 12.5 mg/kg, ip measured after 30 mins for 15 secs by hot plate method (reference value: 4.21 +/- 0.41 sec). It counts as functional.
In data set [13] the test system is Rattus norvegicus. The data set is described as follows: Antiinflammatory activity in Sprague-Dawley rat model of carrageenan-induced thermal hyperalgesia assessed as paw withdrawal latency pressure at 50 mg/kg, po administered 1 hr prior to carrageenan challenge and measured after 2 hrs by Randall-Selitto test (reference value: 231.13 +/- 3.15 g). It counts as functional.

The test system of data set [14] is Rattus norvegicus. The data set can be described thus: Analgesic activity in Wistar albino rat assessed as reaction time at 25 mg/kg, ip measured after 120 mins for 15 secs by hot plate method (reference value: 4.32 +/- 0.52 sec). Format: functional.
Data set [15] relates to Rattus norvegicus. The data set is described as follows: Antiinflammatory activity in Sprague-Dawley rat model of carrageenan-induced thermal hyperalgesia assessed as paw withdrawal latency time at 50 mg/kg, po administered 1 hr prior to carrageenan challenge and measured after 2 hrs by planter test (reference value: 6.17 +/- 0.58 sec). Format: functional.
For data set [16], the system named is Rattus norvegicus. The data set can be described thus: Antiinflammatory activity in Sprague-Dawley rat model of carrageenan-induced thermal hyperalgesia assessed as paw withdrawal latency pressure at 50 mg/kg, po administered 1 hr prior to carrageenan challenge and measured after 3 hrs by Von-frey test (reference value: 146.61 +/- 1.58 g). It counts as functional.

The subject of data set [17] is Rattus norvegicus. The data set can be described thus: Analgesic activity in Wistar albino rat assessed as reaction time at 25 mg/kg, ip measured after 180 mins for 15 secs by hot plate method (reference value: 3.87 +/- 0.38 sec). It counts as functional.
Data set [18] relates to Rattus norvegicus. The data set is described as follows: Antiinflammatory activity in Wistar albino rat assessed as reduction in carrageenan-induced paw volume at 12.5 mg/kg, ip measured after 2 hrs by plethysmometric method (reference value: 1.58 +/- 0.21 ml). It counts as functional.
Data set [19] deals with Rattus norvegicus. The data set is described as follows: Antiinflammatory activity in Sprague-Dawley rat model of carrageenan-induced thermal hyperalgesia assessed as paw withdrawal latency time at 50 mg/kg, po administered 1 hr prior to carrageenan challenge and measured after 1 hr by planter test (reference value: 8.88 +/- 0.52 sec). It counts as functional.
Data set [20] concerns Rattus norvegicus. The data set can be described thus: Antiinflammatory activity in Sprague-Dawley rat model of carrageenan-induced thermal hyperalgesia assessed as paw withdrawal latency pressure at 50 mg/kg, po administered 1 hr prior to carrageenan challenge and measured after 1 hr by Randall-Selitto test (reference value: 246.55 +/- 1.05 g). It counts as functional.
The test system of data set [21] is Rattus norvegicus. The data set can be described thus: Antiinflammatory activity in Sprague-Dawley rat model of carrageenan-induced thermal hyperalgesia assessed as paw withdrawal latency pressure at 50 mg/kg, po administered 1 hr prior to carrageenan challenge and measured after 3 hrs by Randall-Selitto test (reference value: […] g). Format: functional.

The subject of data set [22] is Rattus norvegicus. The data set can be described thus: Antiinflammatory activity in Sprague-Dawley rat model of carrageenan-induced thermal hyperalgesia assessed as paw withdrawal latency pressure at 50 mg/kg, po administered 1 hr prior to carrageenan challenge and measured after 2 hrs by Von-frey test (reference value: 146.47 +/- 5.12 g). Format: functional.
The subject of data set [23] is Rattus norvegicus. The data set is described as follows: Antiinflammatory activity in Sprague-Dawley rat model of carrageenan-induced thermal hyperalgesia assessed as paw withdrawal latency pressure at 50 mg/kg, po administered 1 hr prior to carrageenan challenge and measured after 3 hrs by Von-frey test (reference value: 31.65 +/- 3.33 g). Format: functional.
Data set [24] concerns Rattus norvegicus. The data set can be described thus: Analgesic activity in Wistar albino rat assessed as reaction time at 25 mg/kg, ip measured after 30 mins for 15 secs by hot plate method (reference value: 4.21 +/- 0.41 sec). Format: functional.
Data set [25] relates to Rattus norvegicus. The data set can be described thus: Antiinflammatory activity in Sprague-Dawley rat model of carrageenan-induced thermal hyperalgesia assessed as paw withdrawal latency pressure at 50 mg/kg, po administered 1 hr prior to carrageenan challenge and measured after 3 hrs by Randall-Selitto test (reference value: 176.84 +/- 8.1 g). Format: functional.
The test system of data set [26] is Rattus norvegicus. The data set is described as follows: Antiinflammatory activity in Wistar albino rat assessed as reduction in carrageenan-induced paw volume at 12.5 mg/kg, ip measured after 3 hrs by plethysmometric method (reference value: 1.75 +/- 0.33 ml). It counts as functional.
The test system of data set [27] is Rattus norvegicus. The data set is described as follows: Analgesic activity in Wistar albino rat assessed as reaction time at 12.5 mg/kg, ip measured after 60 mins for 15 secs by hot plate method (reference value: 4.67 +/- 0.52 sec). It counts as functional.
Data set [28] concerns Rattus norvegicus. The data set can be described thus: Antiinflammatory activity in Wistar albino rat assessed as reduction in carrageenan-induced paw edema at 25 mg/kg, ip measured after 1 hr by plethysmometric method (reference value: 1.43 +/- 0.19 ml). It counts as functional.
For data set [29], the system named is Rattus norvegicus. The data set can be described thus: Antiinflammatory activity in Sprague-Dawley rat model of carrageenan-induced thermal hyperalgesia assessed as paw withdrawal latency time at 50 mg/kg, po administered 1 hr prior to carrageenan challenge and measured after 5 hrs by planter test (reference value: 7.5 +/- 0.74 sec). It counts as functional.

Turning to `COc1ccc2c(c1)c(CC(=O)O)c(C)n2C(=O)c1ccc(Cl)cc1` [INDOMETHACIN], the Activity result in data set [1] is given as “Toxic”.

As to `Cc1ccc(-c2cc(C(F)(F)F)nn2-c2ccc(S(N)(=O)=O)cc2)cc1` [CELECOXIB], the Time is 8.36 s with Rattus norvegicus [2]; 10.98 s in the data set on Rattus norvegicus [5]; 8.93 s in the data set with Rattus norvegicus [7]; 9.92 s with Rattus norvegicus [8]; 9.48 s in the data set on Rattus norvegicus [9]; 5.75 s with Rattus norvegicus [12]. Besides, the Time stood at 12.08 s in the data set on Rattus norvegicus [14]; 10.98 s in the data set with Rattus norvegicus [15]; 10.87 s in the data set on Rattus norvegicus [17]; 11.54 s in the data set with Rattus norvegicus [19]; 6.34 s in the data set on Rattus norvegicus [24]; 8.93 s in the data set on Rattus norvegicus [27]. Moreover, the Time with Rattus norvegicus [29] worked out at 9.22 s. Also, the Activity was found to be 1.34 mL in the data set with Rattus norvegicus [3]; 1.23 mL in the data set with Rattus norvegicus [4]; 180.82 g in the data set on Rattus norvegicus [6]; 1.16 mL in the data set with Rattus norvegicus [10]; 176.45 g with Rattus norvegicus [11]; 273.46 g in the data set with Rattus norvegicus [13]. For the same molecule, the Activity in the data set on Rattus norvegicus [16] was found to be 176.87 g; in the data set with Rattus norvegicus [18] it was 1.38 mL; in the data set with Rattus norvegicus [20] it was 270.89 g; with Rattus norvegicus [21], 269.55 g; with Rattus norvegicus [22], 176.63 g; in the data set with Rattus norvegicus [23], 176.87 g. Further, the results for the Activity in the data set on Rattus norvegicus [25], in the data set on Rattus norvegicus [26] and in the data set on Rattus norvegicus [28] were 270.66 g, 1.36 mL and 1.3 mL, respectively.
